Starred links: 1 amine or outer side, 2 acyl side, 3 side chain; linkers in the order of their positions; H or OH if unused. Positions of bridges follow the written chain, without caps; N, C: chain ends. Non-standard residues stand in square brackets, D forms with d. Residues, ends and D or L forms follow the SMILES beside them. *: point of attachment. C20 diacid = O=C(O)CCCCCCCCCCCCCCCCCCC(=O)*; C18 diacid = O=C(O)CCCCCCCCCCCCCCCCC(=O)*; γGlu = O=C(O)[C@H](CCC(=O)[*:2])N[*:1]; Orn = NCCC[C@H](N)C(=O)O; AEEA = NCCOCCOCC(=O)O
Columns and labels:
[1] = biological target: T1, rat amylin 3(a) receptor (rat calcitonin(a) receptor + rat RAMP3) (Rattus norvegicus, UniProt P32214+Q9JJ73); assay: Assay (II)b functional cAMP FlashPlate assay, rat amylin receptor; format: cell-based; conditions: Table 11
T1 construct: expressed in transfected cells; host or cells: BHK tk'ts 13
T1 sequence (P32214 25-479 isoform P32214-2 limits assumed): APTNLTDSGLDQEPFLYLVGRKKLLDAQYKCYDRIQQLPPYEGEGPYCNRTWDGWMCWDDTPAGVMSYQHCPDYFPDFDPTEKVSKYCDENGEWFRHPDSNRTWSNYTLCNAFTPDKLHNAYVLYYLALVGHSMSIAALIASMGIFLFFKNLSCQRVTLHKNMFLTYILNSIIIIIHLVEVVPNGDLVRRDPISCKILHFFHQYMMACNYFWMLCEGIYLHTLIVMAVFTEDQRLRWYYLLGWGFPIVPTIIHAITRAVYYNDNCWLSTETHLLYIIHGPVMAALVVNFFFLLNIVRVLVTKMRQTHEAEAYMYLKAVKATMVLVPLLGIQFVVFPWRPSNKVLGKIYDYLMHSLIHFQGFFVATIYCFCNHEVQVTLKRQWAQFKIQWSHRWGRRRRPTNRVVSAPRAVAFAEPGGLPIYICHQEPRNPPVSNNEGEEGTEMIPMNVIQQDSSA
T1 sequence (Q9JJ73 23-147 partner): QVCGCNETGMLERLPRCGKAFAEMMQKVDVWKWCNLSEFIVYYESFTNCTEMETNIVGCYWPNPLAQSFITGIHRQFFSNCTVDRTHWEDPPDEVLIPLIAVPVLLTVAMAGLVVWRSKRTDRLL
Procedure, shortened: (§1)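 BHK tk'ts 13 cells transiently transfected with rat calcitonin(a) receptor, alone or with rat RAMP3 (amylin 3(a)), were stimulated 24 hours later with sample for 30 min in buffer containing IBMX. cAMP measured by competitive radioactive FlashPlate assay, scintillation read after 3 h detection incubation.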

[2] = biological target: T2, rat calcitonin (a) receptor (Rattus norvegicus, UniProt P32214); assay: Assay (II)b functional cAMP FlashPlate assay, rat calcitonin receptor; format: cell-based; conditions: Table 11; read-out: CTa receptor rat EC50
T2 construct: expressed in transfected cells; host or cells: BHK tk'ts 13
T2 sequence (P32214 25-479 isoform P32214-2 limits assumed): T1 sequence (P32214 25-479 isoform P32214-2 limits assumed)
Procedure, shortened: as §1

[3] = Assay (III) ThT fibrillation assay for physical stability; format: physicochemical
Procedure, shortened: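 Freshly prepared formulations, pH-adjusted, with 1 μM ThT; four or eight replicates incubated at 37 °C under 960 rpm orbital shaking. Fluorescence (ex 444/em 485 nm) read every 20 min; […]. Peptide concentration measured by RP-HPLC before and after the run.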

| SMILES | EC50 [1] | EC50 [2] | ThT pH 4.0 lag time (h) ([3]; ThT fibrillation assay) | ThT pH 4.0 lag time ([3]; ThT fibrillation assay) | ThT pH 4.0 lag time ([3]; Table 8) | ThT pH 4.0 lag time ([3]; Table 9) |
| --- | --- | --- | --- | --- | --- | --- |
| CC[C@H](C)[C@H](NC(=O)[C@@H]1CCCN1C(=O)CNC(=O)[C@H](Cc1ccccc1)NC(=O)[C@H](CC(N)=O)NC(=O)[C@H](CC(N)=O)NC(=O)[C@H](CO)NC(=O)[C@H](CO)NC(=O)[C@H](Cc1c[nH]cn1)NC(=O)[C@H](Cc1c[nH]cn1)NC(=O)[C@H](CC(C)C)NC(=O)[C@H](Cc1ccccc1)NC(=O)[C@H](CCC(=O)O)NC(=O)[C@H](C)NC(=O)[C@H](CC(C)C)NC(=O)[C@H](CCCNC(=N)N)NC(=O)[C@H](CCC(N)=O)NC(=O)[C@@H](NC(=O)[C@H](C)NC(=O)[C@@H]1CSSC[C@H](NC(=O)[C@H](CCCCN)NC(=O)[C@H](CCC(=O)O)NC(=O)CC[C@H](NC(=O)CCCCCCCCCCCCCCCCC(=O)O)C(=O)O)C(=O)N[C@@H](CC(N)=O)C(=O)N[C@@H]([C@@H](C)O)C(=O)N[C@@H](C)C(=O)N[C@@H]([C@@H](C)O)C(=O)N1)[C@@H](C)O)C(=O)N[C@@H](CC(C)C)C(=O)N1CCC[C@H]1C(=O)N1CCC[C@H]1C(=O)N[C@H](C(=O)N[C@@H](CC(N)=O)C(=O)N[C@H](C(=O)NCC(=O)N[C@@H](CO)C(=O)N[C@@H](CC(N)=O)C(=O)N[C@H](C(=O)N[C@@H](Cc1ccc(O)cc1)C(N)=O)[C@@H](C)O)C(C)C)[C@@H](C)O [Example 42, N-alpha-[(S)-4-Carboxy-4-(17-carboxyheptadecanoylamino)butyryl]-Glu-[Glu14,His17]-pramlintide] ({C18 diacid-γGlu}-EKCNTATCATQRLAEFLHHSSNNFGPILPPTNVGSNTY-NH2; disulfide 3-8 (inferred)) | 0.135 nM | 2.43 nM | 7.3 h | – | – | – |
| CC[C@H](C)[C@H](NC(=O)[C@@H]1CCCN1C(=O)CNC(=O)[C@H](Cc1ccccc1)NC(=O)[C@H](CC(N)=O)NC(=O)[C@H](CC(N)=O)NC(=O)[C@H](CO)NC(=O)[C@H](CO)NC(=O)[C@H](Cc1c[nH]cn1)NC(=O)[C@H](Cc1c[nH]cn1)NC(=O)[C@H](CC(C)C)NC(=O)[C@H](Cc1ccccc1)NC(=O)[C@H](CCC(=O)O)NC(=O)[C@H](C)NC(=O)[C@H](CC(C)C)NC(=O)[C@H](CCCNC(=N)N)NC(=O)[C@H](CCC(N)=O)NC(=O)[C@@H](NC(=O)[C@H](C)NC(=O)[C@@H]1CSSC[C@H](NC(=O)[C@H](CCCNC(=N)N)NC(=O)CC[C@H](NC(=O)CCCCCCCCCCCCCCCCCCC(=O)O)C(=O)O)C(=O)N[C@@H](CC(N)=O)C(=O)N[C@@H]([C@@H](C)O)C(=O)N[C@@H](C)C(=O)N[C@@H]([C@@H](C)O)C(=O)N1)[C@@H](C)O)C(=O)N[C@@H](CC(C)C)C(=O)N1CCC[C@H]1C(=O)N1CCC[C@H]1C(=O)N[C@H](C(=O)N[C@@H](CC(N)=O)C(=O)N[C@H](C(=O)NCC(=O)N[C@@H](CO)C(=O)N[C@@H](CC(N)=O)C(=O)N[C@H](C(=O)N1CCC[C@H]1C(N)=O)[C@@H](C)O)C(C)C)[C@@H](C)O [Example 96, N-alpha-[(S)-4-Carboxy-4-(19-carboxynonadecanoylamino)butyryl]-[Arg1,Glu14,His17,Pro37]-pramlintide] ({C20 diacid-γGlu}-RCNTATCATQRLAEFLHHSSNNFGPILPPTNVGSNTP-NH2; disulfide 2-7 (inferred)) | 0.088 nM | 0.058 nM | >45 h | >45 h | >45 h | >45 h |

Results, then the molecule that gave them:

| EC50 [1] | EC50 [2] | ThT pH 4.0 lag time (h) ([3]; ThT fibrillation assay) | ThT pH 4.0 lag time ([3]; ThT fibrillation assay) | ThT pH 4.0 lag time ([3]; Table 8) | ThT pH 4.0 lag time ([3]; Table 9) | SMILES |
| --- | --- | --- | --- | --- | --- | --- |
| 0.033 nM | 2.57 nM | 22 h | – | – | – | CC[C@H](C)[C@H](NC(=O)[C@@H]1CCCN1C(=O)CNC(=O)[C@H](Cc1ccccc1)NC(=O)[C@H](CC(N)=O)NC(=O)[C@H](CC(N)=O)NC(=O)[C@H](CO)NC(=O)[C@H](CO)NC(=O)[C@H](CCCNC(=N)N)NC(=O)[C@H](Cc1c[nH]cn1)NC(=O)[C@H](CC(C)C)NC(=O)[C@H](Cc1ccccc1)NC(=O)[C@H](CCC(=O)O)NC(=O)[C@H](C)NC(=O)[C@H](CC(C)C)NC(=O)[C@H](CCCNC(=N)N)NC(=O)[C@H](CCC(N)=O)NC(=O)[C@@H](NC(=O)[C@H](C)NC(=O)[C@@H]1CSSC[C@H](NC(=O)[C@H](CCCN)NC(=O)[C@@H](CCCNC(=N)N)NC(=O)[C@@H](CCCNC(=N)N)NC(=O)COCCOCCNC(=O)COCCOCCNC(=O)CC[C@H](NC(=O)CCCCCCCCCCCCCCCCC(=O)O)C(=O)O)C(=O)N[C@@H](CC(N)=O)C(=O)N[C@@H]([C@@H](C)O)C(=O)N[C@@H](C)C(=O)N[C@@H]([C@@H](C)O)C(=O)N1)[C@@H](C)O)C(=O)N[C@@H](CC(C)C)C(=O)N1CCC[C@H]1C(=O)N1CCC[C@H]1C(=O)N[C@H](C(=O)N[C@@H](CC(N)=O)C(=O)N[C@H](C(=O)NCC(=O)N[C@@H](CO)C(=O)N[C@@H](CC(N)=O)C(=O)N[C@H](C(=O)N[C@@H](Cc1ccc(O)cc1)C(N)=O)[C@@H](C)O)C(C)C)[C@@H](C)O [Example 120, N-alpha-[2-(2-{2-[2-(2-{2-[(S)-4-Carboxy-4-(17-carboxyheptadecanoylamino)butyrylamino]ethoxy}ethoxy)acetylamino]ethoxy}ethoxy)acetyl]-D-Arg-D-Arg-[Orn1,Glu14,His17,Arg18]-pramlintide] ({C18 diacid-γGlu-AEEA-AEEA}-[dR][dR][Orn]CNTATCATQRLAEFLHRSSNNFGPILPPTNVGSNTY-NH2; disulfide 4-9 (inferred); C-terminus assumed) |
| 0.224 nM | 1.04 nM | >45 h | >45 h | – | – | CC[C@H](C)[C@H](NC(=O)[C@@H]1CCCN1C(=O)CNC(=O)[C@H](Cc1ccccc1)NC(=O)[C@H](CC(N)=O)NC(=O)[C@H](CC(N)=O)NC(=O)[C@H](CO)NC(=O)[C@H](CO)NC(=O)[C@H](Cc1c[nH]cn1)NC(=O)[C@H](Cc1c[nH]cn1)NC(=O)[C@H](CC(C)C)NC(=O)[C@H](Cc1ccccc1)NC(=O)[C@H](CCC(=O)O)NC(=O)[C@H](C)NC(=O)[C@H](CC(C)C)NC(=O)[C@H](CCCNC(=N)N)NC(=O)[C@H](CCC(N)=O)NC(=O)[C@@H](NC(=O)[C@H](C)NC(=O)[C@@H]1CSSC[C@H](NC(=O)[C@H](Cc2c[nH]cn2)NC(=O)CC[C@H](NC(=O)CCCCCCCCCCCCCCCCCCC(=O)O)C(=O)O)C(=O)N[C@@H](CC(N)=O)C(=O)N[C@@H]([C@@H](C)O)C(=O)N[C@@H](C)C(=O)N[C@@H]([C@@H](C)O)C(=O)N1)[C@@H](C)O)C(=O)N[C@@H](CC(C)C)C(=O)N1CCC[C@H]1C(=O)N1CCC[C@H]1C(=O)N[C@H](C(=O)N[C@@H](CC(N)=O)C(=O)N[C@H](C(=O)NCC(=O)N[C@@H](CO)C(=O)N[C@@H](Cc1c[nH]cn1)C(=O)N[C@H](C(=O)N[C@@H](Cc1ccc(O)cc1)C(N)=O)[C@@H](C)O)C(C)C)[C@@H](C)O [Example 76, N-alpha-[(S)-4-Carboxy-4-(19-carboxynonadecanoylamino)butyryl]-[His1,Glu14,His17,His35]-pramlintide] ({C20 diacid-γGlu}-HCNTATCATQRLAEFLHHSSNNFGPILPPTNVGSHTY-NH2; disulfide 2-7 (inferred); C-terminus assumed) |
| 0.261 nM | 1.29 nM | 2.7 h | – | – | – | CC[C@H](C)[C@H](NC(=O)[C@@H]1CCCN1C(=O)CNC(=O)[C@H](Cc1ccccc1)NC(=O)[C@H](CC(N)=O)NC(=O)[C@H](CC(N)=O)NC(=O)[C@H](CO)NC(=O)[C@H](CO)NC(=O)[C@H](Cc1c[nH]cn1)NC(=O)[C@H](Cc1c[nH]cn1)NC(=O)[C@H](CC(C)C)NC(=O)[C@H](Cc1ccccc1)NC(=O)[C@H](CCC(=O)O)NC(=O)[C@H](C)NC(=O)[C@H](CC(C)C)NC(=O)[C@H](CCCNC(=N)N)NC(=O)[C@H](CCC(N)=O)NC(=O)[C@@H](NC(=O)[C@H](C)NC(=O)[C@@H]1CSSC[C@H](NC(=O)[C@H](Cc2c[nH]cn2)NC(=O)[C@H](Cc2c[nH]cn2)NC(=O)[C@H](Cc2c[nH]cn2)NC(=O)CC[C@H](NC(=O)CCCCCCCCCCCCCCCCCCC(=O)O)C(=O)O)C(=O)N[C@@H](CCCNC(=N)N)C(=O)N[C@@H]([C@@H](C)O)C(=O)N[C@@H](C)C(=O)N[C@@H]([C@@H](C)O)C(=O)N1)[C@@H](C)O)C(=O)N[C@@H](CC(C)C)C(=O)N1CCC[C@H]1C(=O)N1CCC[C@H]1C(=O)N[C@H](C(=O)N[C@@H](CC(N)=O)C(=O)N[C@H](C(=O)NCC(=O)N[C@@H](CO)C(=O)N[C@@H](CC(N)=O)C(=O)N[C@H](C(=O)N[C@@H](Cc1ccc(O)cc1)C(N)=O)[C@@H](C)O)C(C)C)[C@@H](C)O [Example 22, N-alpha-[(S)-4-Carboxy-4-(19-carboxynonadecanoylamino)butyryl]-His-His-[His1,Arg3,Glu14,His17]-pramlintide] ({C20 diacid-γGlu}-HHHCRTATCATQRLAEFLHHSSNNFGPILPPTNVGSNTY-NH2; disulfide 4-9 (inferred)) |

From patent US8722849B2, “Polypeptides” (Novo Nordisk A/S, priority 2011, dated 2014)
